Measured values as given in patent US9808528B2, “Protein-polymer-drug conjugates and methods of using same” (priority 2014, dated 2017).
Where “and” joins values, the source holds several entries; their conditions need not be identical. Identical values can stand only once.

Columns and labels:
BT474 [1] = assay: Cell viability assay (Cell Titer-Glo); assay type: cell-based, human; conditions: 72 h incubation; AF-HPA as toxin equivalents
Experimental: (§1) PBRM-polymer-drug conjugates were evaluated for their antiproliferation properties in tumor cell lines in vitro using Cell Titer-Glo (Promega Corp). Cells were plated in black walled 96-well plate and allowed to adhere overnight at 37° C. in a humidified atmosphere of 5% CO2. SKBR3, BT474, NCI-N87 cells (HER2 expressing cells), MCF7 cells (HER2 low expressing levels cells) and JIMT1 cells (HER2 medium expression level cells) were plated at a density of 5,000 cells per well. The next day the medium was replaced with 50 μL fresh medium and 50 μL of 2× stocks of PBRM-polymer-drug conjugate, drug polymer conjugate or drug were added to appropriate wells, mixed and incubated for 72 h. Cell Titer-Glo reagent was added to the wells at room temperature and the luminescent signal was measured after 10 min using a SpectraMax M5 plate reader (Molecular Devices). Dose response curves were generated using SoftMax Pro software. IC50 values were determined from four-parameter curve fitting.

SKBR3 = assay: Cell viability assay (Cell Titer-Glo); assay type: cell-based; conditions: 72 h incubation; AF-HPA as toxin equivalents
Experimental: as §1

N87 = assay: Cell viability assay (Cell Titer-Glo); assay type: cell-based; conditions: 72 h incubation; AF-HPA as toxin equivalents
Experimental: as §1

MCF7 = assay: Cell viability assay (Cell Titer-Glo); assay type: cell-based; conditions: 72 h incubation; HER2 low expressing cells; AF-HPA as toxin equivalents
Experimental: as §1

JIMT1 = assay: Cell viability assay (Cell Titer-Glo); assay type: cell-based; conditions: 72 h incubation; HER2 medium expression level cells; AF-HPA as toxin equivalents
Experimental: as §1

MDA-MB-453 = assay: Cytotoxicity assay (CellTiter-Glo); assay type: cell-based; conditions: HER2 molecules per cell 125,000; Her2 expression 2+; 72 hours or 6 days
MDA-MB-361 = assay: Cytotoxicity assay (CellTiter-Glo); assay type: cell-based, human; conditions: HER2 molecules per cell 135,000; Her2 expression 2+; 72 hours or 6 days
Experimental: (§2) MDA-MB-175-VII (human breast cancer cell line, not amplified, ATCC, Cat.# HTB-25), was cultured in Leibovitz's L-15 Medium with 20% FBS. CAMA-1 (human breast cancer cell line, not amplified, ATCC, Cat.# HTB-21), was cultured in 90% ATCC-formulated Eagle's Minimum Essential Medium.
(§3) For the cytotoxicity assay, cells were seeded at a density of 3000 cells per well in 96 well plates and allowed to attach during overnight incubation at 37° C. in the presence of 5% CO2.

MDA-MB-175VII = assay: Cytotoxicity assay (CellTiter-Glo); assay type: cell-based, human; conditions: read-out: IC50 MDA-MB-175VII; HER2 molecules per cell 51,000; Her2 expression 1+; 72 hours or 6 days
Experimental: as §2, §3

CAMA-1 = assay: Cytotoxicity assay (CellTiter-Glo); assay type: cell-based, human; conditions: HER2 molecules per cell 50,000; Her2 expression 1+; 72 hours or 6 days
Experimental: as §2, §3

ZR75-1 = assay: Cytotoxicity assay (CellTiter-Glo); assay type: cell-based, human; conditions: HER2 molecules per cell 40,000; Her2 expression 1+; 72 hours or 6 days
Experimental: (§4) ZR75-1 (human breast cancer cell line, not amplified, ATCC, Cat.# CRL-1500), was cultured in RPMI-1640 Medium. HCC1187 (human breast cancer cell line, not amplified, ATCC, Cat.# CRL-2322), was cultured in RPMI-1640 Medium. HCC38 (human breast cancer cell line, not amplified, ATCC, Cat.# CRL-2314), was cultured in RPMI-1640 Medium. T47D (human breast cancer cell line, not amplified, ATCC, Cat.# HTB-133), was cultured in RPMI-1640 Medium. MDA-MB-231 (human breast cancer cell line, not amplified, ATCC, Cat.# HTB-26), was cultured in DMEM Medium.
as §3

HCC1187 = assay: Cytotoxicity assay (CellTiter-Glo); assay type: cell-based, human; conditions: HER2 molecules per cell 38,000; Her2 expression 2+; 72 hours or 6 days
Experimental: as §4, §3

HCC38 = assay: Cytotoxicity assay (CellTiter-Glo); assay type: cell-based, human; conditions: HER2 molecules per cell 36,000; Her2 expression 2+; 72 hours or 6 days
Experimental: as §4, §3

T47D = assay: Cytotoxicity assay (CellTiter-Glo); assay type: cell-based, human; conditions: HER2 molecules per cell 20,000; Her2 expression 1+; 72 hours or 6 days
Experimental: as §4, §3

MDA-MB-231 = assay: Cytotoxicity assay (CellTiter-Glo); assay type: cell-based, human; conditions: HER2 molecules per cell 5400; Her2 expression 1+; 72 hours or 6 days
Experimental: as §4, §3

NCI-H522 = assay: Cytotoxicity assay (CellTiter-Glo); assay type: cell-based; conditions: HER2 molecules per cell 25,000; Her2 expression 1+; 72 hours or 6 days
Experimental: (§5) NCI-H1581 (non-small cell lung carcinoma medium expressing cell line, not amplified, ATCC, Cat.# CRL-5878) cells were cultured in DMEM:F12 medium (ATCC, Cat#30-2006). […] CALU3 (human lung adenocarcinoma cell line, ATCC, Cat# HTB-55) was cultured in ATCC-formulated Eagle's Minimum Essential Medium. […] NCI-H2122 (human lung adenocarcinoma cell line, not amplified, ATCC, Cat# CRL-5985) was cultured in RPMI-1640 Medium, (ATCC, Cat#30-2001).
as §3

NCI-H1581 = assay: Cytotoxicity assay (CellTiter-Glo); assay type: cell-based; conditions: HER2 molecules per cell 13,000; Her2 expression 1+; 72 hours or 6 days
Experimental: as §5, §3

NCI-H2170 = assay: Cytotoxicity assay (CellTiter-Glo); assay type: cell-based; conditions: HER2 molecules per cell 660,000; Her2 expression 3+; 72 hours or 6 days
Experimental: as §5, §3

CALU3 = assay: Cytotoxicity assay (CellTiter-Glo); assay type: cell-based, human; conditions: HER2 molecules per cell 330,000; Her2 expression 3+; 72 hours or 6 days
Experimental: as §5, §3

NCI-H2122 = assay: Cytotoxicity assay (CellTiter-Glo); assay type: cell-based, human; conditions: HER2 molecules per cell 12,000; Her2 expression 1+; 72 hours or 6 days
Experimental: as §5, §3

A549 = assay: Cytotoxicity assay (CellTiter-Glo); assay type: cell-based, human; conditions: HER2 molecules per cell 6,000; Her2 expression 1+; 72 hours or 6 days
Experimental: (§6) A549 (human lung carcinoma cell line, not amplified, ATCC, Cat# CCL-185) was cultured in F12K Medium. […] NCI-H460 (human lung carcinoma cell line, not amplified, ATCC, Cat.# HTB-177) was cultured in RPMI-1640 Medium, (ATCC, Cat.#30-2001). SHP-77 (human small cell lung cancer cell line, not amplified, ATCC, Cat.# CRL-2195) was cultured in RPMI-1640 Medium, (ATCC, Cat#30-2001).
as §3

NCI-H460 = assay: Cytotoxicity assay (CellTiter-Glo); assay type: cell-based, human; conditions: HER2 molecules per cell 4,000; Her2 expression 1+; 72 hours or 6 days
Experimental: as §6, §3

SHP-77 = assay: Cytotoxicity assay (CellTiter-Glo); assay type: cell-based, human; conditions: HER2 molecules per cell 0; 72 hours or 6 days
Experimental: as §6, §3

SNU5 = assay: Cytotoxicity assay (CellTiter-Glo); assay type: cell-based; conditions: HER2 molecules per cell 22,000; Her2 expression 1+; 72 hours or 6 days
Experimental: as §6, §3

KATOIII = assay: Cytotoxicity assay (CellTiter-Glo); assay type: cell-based, human; conditions: HER2 molecules per cell 19,000; Her2 expression 1+; 72 hours or 6 days
Experimental: as §6, §3

MKN45 = assay: Cytotoxicity assay (CellTiter-Glo); assay type: cell-based, human; conditions: HER2 molecules per cell 16,000; Her2 expression 1+; 72 hours or 6 days
Experimental: (§7) OVCAR3 (ovarian adenocarcinoma, not amplified, ATCC, Cat# HTB-161) was cultured in RPMI medium with 20% FBS. […] MKN-45 III (human gastric adenocarcinoma cell line, not amplified, DSMZ, Braunschweig, Germany, Cat.# ACC409) was cultured in RPMI-1640 Medium, (ATCC, Cat#30-2001). SKOV3 (human ovary adenocarcinoma cell line ATCC, Cat.# HTB-77), was cultured in McCoy's 5a Medium.
as §3

OVCAR3 = assay: Cytotoxicity assay (CellTiter-Glo); assay type: cell-based; conditions: HER2 molecules per cell 7,200; Her2 expression 1+; 72 hours or 6 days
Experimental: as §7, §3

SKOV3 = assay: Cytotoxicity assay (CellTiter-Glo); assay type: cell-based, human; conditions: HER2 molecules per cell 220,000; Her2 expression 3+; 72 hours or 6 days
Experimental: as §7, §3

TOV21G = assay: Cytotoxicity assay (CellTiter-Glo); assay type: cell-based, human; conditions: HER2 molecules per cell 12,000; Her2 expression 1+; 72 hours or 6 days
Experimental: as §7, §3

BT474 [2] = assay: Cytotoxicity assay (CellTiter-Glo); assay type: cell-based, human; conditions: HER2 molecules per cell 860,000; Her2 expression 3+; 72 hours or 6 days
Experimental: as §7, §3

NCI-N87 = assay: Cytotoxicity assay (CellTiter-Glo); assay type: cell-based; conditions: HER2 molecules per cell 700,000; Her2 expression 3+; 72 hours or 6 days
Experimental: as §3

hErbB2 = hErbB2 (Homo sapiens, UniProt P04626); assay: Ligand binding studies by BIAcore surface plasmon resonance (SPR); conditions: 25° C.; immobilized hErbB2; BioRad ProteOn XPR36
Experimental: The kinetic binding of the PBRM-polymer-drug conjugate to an immobilized receptor is determined by BIAcore SPR. The binding constants for the PBRM in the PBRM-polymer-drug conjugate and PBRM alone can be determined using standard BIAcore procedures.
The kinetic binding of the PBRM-polymer-drug conjugate to an immobilized receptor was determined by BIAcore SPR.

JIMT-1 cells = assay: Tumor growth response, JIMT-1 xenograft; assay type: in vivo, mice; conditions: single IV dose day 1
Experimental: Female CB-17 SCID mice were inoculated subcutaneously with BT474 tumor fragments (n=10 for each group) or JIMT-1 cells (n=10 for each group) or NCI-N87 cells (n=10 for each group). […] Test compounds or vehicle were dosed IV as a single dose on day 1. Tumor size was measured at the times indicated in FIGS. 1 to 6 using digital calipers. Tumor volume was calculated and was used to determine the delay in tumor growth. Mice were sacrificed when tumors reached a size of 800 to 1500 mm^3. Tumor volumes are reported as the mean±SEM (“standard error of mean”) for each group.

JIMT-1 = conditions: read-out: IC50 JIMT-1; HER2 molecules per cell 80,000; Her2 expression 2+; 72 hours or 6 days

Work on ado-trastuzumab emtansine [Kadcyla] yielded an IC50 (BT474 [1]) of 2.4 nM, an IC50 (SKBR3) of 0.23 nM and an IC50 (N87) of 0.09 nM. The IC50 (MCF7) was 38.6 nM, the IC50 (JIMT1) was 18 nM and the IC50 (MDA-MB-453) was ~100 nM. For the same substance, the IC50 (MDA-MB-361) was 0.27 nM and 0.33 nM, the IC50 (MDA-MB-175VII) was 1.2 nM and the IC50 (CAMA-1) was 7.8 nM. The IC50 (ZR75-1) was > 100 nM, the IC50 (HCC1187) was 30 nM and the IC50 (HCC38) was > 100 nM. The IC50 (T47D) was 82.3 nM, the IC50 (MDA-MB-231) was 27 nM and the IC50 (NCI-H522) was ~100 nM. For the same substance, the IC50 (NCI-H1581) was ~100 nM, the IC50 (NCI-H2170) was 0.4 nM and the IC50 (CALU3) was > 100 nM. The IC50 (NCI-H2122) was 19 nM, the IC50 (A549) was > 100 nM and the IC50 (NCI-H460) was 68 nM. For the same substance, the IC50 (SHP-77) was > 100 nM, the IC50 (SNU5) was ~100 nM and the IC50 (KATOIII) was > 100 nM. The IC50 (MKN45) was > 100 nM, the IC50 (OVCAR3) was ~85 nM and the IC50 (SKOV3) was 5.6 nM. The IC50 (TOV21G) was > 100 nM, the IC50 (BT474 [2]) was 1.3 nM and the IC50 (NCI-N87) was 0.3 nM. The “ka (association or affinity rate constant)” value (hErbB2) was 4.61 ± 0.2 × 10^5 M^−1s^−1, the “kd (dissociation rate constant)” value (hErbB2) was 3.17 ± 0.9 × 10^−5 s^−1 and the “tumor volume response (in words), FIG. 4A” value (JIMT-1 cells; Example 14 at 2, 0.67 and 0.3 mg/kg, trastuzumab 20 mg/kg, Kadcyla 20 mg/kg) was “increase of tumor volume”. For the same substance, the “tumor volume response (in words), FIG. 2” value (JIMT-1 cells; conjugates […], trastuzumab 10 mg/kg, Kadcyla 10 mg/kg) was “increase of tumor volume” and the IC50 (JIMT-1) was 17.5 nM.
